Tests used:
[1] = biological target: T1, Prostaglandin G/H synthase 2 (Homo sapiens, UniProt P35354); type: cell-based, CHO
T1 sequence (P35354 whole entry): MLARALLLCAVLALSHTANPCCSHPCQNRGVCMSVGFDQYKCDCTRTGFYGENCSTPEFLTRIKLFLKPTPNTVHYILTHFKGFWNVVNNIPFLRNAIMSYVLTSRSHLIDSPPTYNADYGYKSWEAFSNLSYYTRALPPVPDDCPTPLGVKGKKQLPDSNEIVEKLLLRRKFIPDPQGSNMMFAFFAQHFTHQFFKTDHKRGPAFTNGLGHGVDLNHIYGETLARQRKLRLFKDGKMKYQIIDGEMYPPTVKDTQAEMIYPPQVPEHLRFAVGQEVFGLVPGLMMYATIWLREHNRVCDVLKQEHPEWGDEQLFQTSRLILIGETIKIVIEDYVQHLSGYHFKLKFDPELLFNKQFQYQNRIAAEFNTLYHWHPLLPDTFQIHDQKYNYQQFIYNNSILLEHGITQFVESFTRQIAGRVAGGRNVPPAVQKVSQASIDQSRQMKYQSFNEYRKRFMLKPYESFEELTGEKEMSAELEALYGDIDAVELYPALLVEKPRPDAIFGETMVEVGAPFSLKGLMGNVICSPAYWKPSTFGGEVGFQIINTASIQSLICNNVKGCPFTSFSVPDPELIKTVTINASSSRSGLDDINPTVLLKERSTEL

[2] = biological target: T2, Prostaglandin G/H synthase 1 (Homo sapiens, UniProt P23219)
Description: In vitro inhibition of the production of PGE-2 in arachidonic acid stimulated chinese hamster ovary (CHO) cells transfected with human cyclooxygenase-1

[3] = biological target: T1, Prostaglandin G/H synthase 2; assay: (§1) In vivo ability to inhibit cyclooxygenase-2 enzyme in human whole blood was determined; type: organism-based
[4] = test system: Rattus norvegicus; assay: Effective dose to inhibit carrageenan induced rat paw edema assay was determined; type: functional
[5] = biological target: Prostaglandin G/H synthase 2 (Homo sapiens, UniProt P35354); assay: as §1; type: organism-based; remark: listed apart in the source
[6] = species: Rattus norvegicus; assay: animal or person; details: read-out: Inhibition
Description: Percentage inhibition against carrageenan induced rat paw edema assay was determined at a dose of 10 mg/Kg

[7] = test system: Rattus norvegicus; assay: GI tolerance when rats were dosed at 100 mg/kg for 10 days in GI permeability assay; High level of GI tolerance; type: functional, organism-based; parameters: dose 100 mg/kg
[8] = Maximum concentration in rats at 1 hr was determined when dosed at 20 mg/Kg perorally; type: ADME, organism-based; parameters: dose 20 mg/Kg, route oral; details: rat, in vivo, po
[9] = biological target: T2, Prostaglandin G/H synthase 1; assay: In vivo ability to inhibit cyclooxygenase-1 enzyme in human whole blood was determined; type: organism-based

T2 sequence (P23219 whole entry): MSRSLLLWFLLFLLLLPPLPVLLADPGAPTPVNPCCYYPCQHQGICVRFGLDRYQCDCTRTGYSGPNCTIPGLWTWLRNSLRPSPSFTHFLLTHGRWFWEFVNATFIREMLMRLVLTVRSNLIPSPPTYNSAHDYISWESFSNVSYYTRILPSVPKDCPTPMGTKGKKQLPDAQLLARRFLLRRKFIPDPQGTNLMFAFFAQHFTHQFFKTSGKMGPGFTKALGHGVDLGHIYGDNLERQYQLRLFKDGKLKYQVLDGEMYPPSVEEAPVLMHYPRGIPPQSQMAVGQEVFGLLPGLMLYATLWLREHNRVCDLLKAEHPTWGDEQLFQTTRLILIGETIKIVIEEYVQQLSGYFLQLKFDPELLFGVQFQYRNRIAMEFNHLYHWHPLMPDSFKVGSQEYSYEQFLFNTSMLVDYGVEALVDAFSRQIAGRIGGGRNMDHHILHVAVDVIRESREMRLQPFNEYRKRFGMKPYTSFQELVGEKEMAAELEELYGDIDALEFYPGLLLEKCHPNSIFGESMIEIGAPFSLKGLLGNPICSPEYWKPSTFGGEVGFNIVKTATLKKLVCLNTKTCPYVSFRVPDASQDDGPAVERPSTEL

Question: For CS(=O)(=O)c1ccc(-c2c(-c3ccc(Cl)cc3)nc3sc(Cl)cn23)cc1, which IC50 [1] is on record?
Answer: The IC50 was 0.016 µM.

Question: And the IC50 [2]?
Answer: Its IC50 is over 50 µM.

Question: For CS(=O)(=O)c1ccc(-c2nc3sc4ccccc4n3c2-c2ccccc2)cc1, which IC50 [1] is on record?
Answer: The IC50 was over 5 µM.

Question: What about the IC50 [2] of the same compound?
Answer: The IC50 was over 50 µM.

Question: What does the source list for Cc1csc2nc(-c3ccccc3)c(-c3ccc(S(C)(=O)=O)cc3)n12?
Answer: IC50 [1]: 3 µM; IC50 [2]: > 50 µM

Question: What does the source list for Cc1sc2nc(-c3ccccc3)c(-c3ccc(S(C)(=O)=O)cc3)n2c1C?
Answer: IC50 [1]: 5 µM; IC50 [2]: > 50 µM

Question: For CS(=O)(=O)c1ccc(-c2c(-c3ccc(F)c(F)c3)nc3sccn23)cc1, which IC50 [1] is on record?
Answer: The IC50 was 0.012 µM.

Question: And the IC50 [3]?
Answer: The IC50 was 2.2 µM.

Question: What about the IC50 [2] of the same compound?
Answer: The IC50 was over 50 µM.

Question: Which IC50 [1] does the source give for CSc1ccc(-c2nc3sccn3c2-c2ccccc2)cc1 here?
Answer: Its IC50 is 5 µM.

Question: And the IC50 [2]?
Answer: Its IC50 is 0.078 µM.

Question: With Cc1cn2c(-c3ccc(S(C)(=O)=O)cc3)c(-c3ccccc3)nc2s1 as the compound, how does the IC50 [1] read?
Answer: Its IC50 is 0.012 µM.

Question: And the IC50 [3]?
Answer: The IC50 was 17.5 µM.

Question: What about the IC50 [2] of the same compound?
Answer: Its IC50 is over 50 µM.

Question: Which IC50 [1] does the source give for CS(=O)(=O)c1ccc(-c2nc3sccn3c2-c2ccccc2)cc1 here?
Answer: Its IC50 is 3.21 µM.

Question: What about the IC50 [2] of the same compound?
Answer: Its IC50 is over 50 µM.

Question: Which IC50 [1] does the source give for CCOC(=O)Cc1csc2nc(-c3ccccc3)c(-c3ccc(S(C)(=O)=O)cc3)n12 here?
Answer: Its IC50 is 0.9 µM.

Question: With CS(=O)(=O)c1ccc(-c2c(-c3ccc(F)cc3)nc3sccn23)cc1 as the compound, how does the IC50 [1] read?
Answer: Its IC50 is 0.014 µM.

Question: What about the ED50 [4] of the same compound?
Answer: Its ED50 is 5 mg/kg.

Question: And the IC50 [3]?
Answer: Its IC50 is 0.4 µM.

Question: And the IC50 [5]?
Answer: Its IC50 is 25 µM.

Question: And the IC50 [2]?
Answer: The IC50 was over 50 µM.

Question: Which IC50 [1] does the source give for CS(=O)(=O)c1ccc(-c2c(-c3ccccc3)nc3scc(CC(=O)O)n23)cc1 here?
Answer: Its IC50 is over 5 µM.

Question: For CS(=O)(=O)c1ccc(-c2cc(Br)sc2-c2ccc(F)cc2)cc1 [DUP-697], which inhibition in vivo at 10 mg/kg [6] is on record?
Answer: The inhibition in vivo at 10 mg/kg was 57%.

Question: Which IC50 [1] does the source give for Cc1cn2c(-c3ccccc3)c(-c3ccc(S(C)(=O)=O)cc3)nc2s1 here?
Answer: The IC50 was 0.14 µM.

Question: What about the IC50 [2] of the same compound?
Answer: The IC50 was over 50 µM.

Question: What does the source list for CS(=O)(=O)c1ccc(-c2c(-c3ccccc3)nc3sc4ccccc4n23)cc1?
Answer: IC50 [1]: > 5 µM; IC50 [2]: > 50 µM

Question: For CS(=O)(=O)c1ccc(-c2c(-c3ccc(Cl)cc3)nc3sc(Cl)c(Cl)n23)cc1, which IC50 [1] is on record?
Answer: Its IC50 is 3.6 µM.

Question: And the IC50 [2]?
Answer: Its IC50 is over 50 µM.

Question: With Cc1sc2nc(-c3ccc(S(C)(=O)=O)cc3)c(-c3ccccc3)n2c1C as the compound, how does the IC50 [1] read?
Answer: Its IC50 is over 5 µM.

Question: And the IC50 [2]?
Answer: The IC50 was over 50 µM.

Question: For CSc1ccc(-c2c(-c3ccccc3)nc3sccn23)cc1, which IC50 [1] is on record?
Answer: The IC50 was 0.42 µM.

Question: What about the IC50 [2] of the same compound?
Answer: Its IC50 is 0.32 µM.

Question: Which results are given for CS(=O)(=O)c1ccc(-c2c(-c3ccccc3)nc3sccn23)cc1?
Answer: IC50 [1]: 0.016 µM; ED50 [4]: 2 mg/kg; IC50 [3]: 0.9 µM; GI tolerance [7]: High level of GI tolerance; Cmax [8]: 1000 nM; IC50 [2]: > 50 µM; IC50 [9]: > 30 µM

Question: What does the source list for Cc1csc2nc(-c3ccc(S(C)(=O)=O)cc3)c(-c3ccccc3)n12?
Answer: IC50 [1]: 1 µM; IC50 [2]: > 50 µM
